Columns and labels:
R. solanacearum [1] = format: cell-based; settings: Oxford cup, 37° C., 16-18 hours, FIG. 1
R. solanacearum [2] = settings: for bactericidal activity against R. solanacearum: from data in Table 4

| SMILES | bactericidal activity (zone of inhibition), preliminary screening (R. solanacearum [1]) | LC50 (E. coli) | activity against E. coli compared with the control drugs (E. coli) | LC50 (E. carotovora) | LC50 (R. solanacearum [2]) | activity against E. carotovora compared with the control drugs (E. carotovora) | bactericidal activity against R. solanacearum (R. solanacearum [2]) |
| --- | --- | --- | --- | --- | --- | --- | --- |
| O=C(O)c1cn(C2CC2)c2ccccc2c1=O [Compound I2] | significant bactericidal activity | 0.913 ppm | more active against E. coli than the control drugs | 5.284 ppm | 13.790 ppm | – | – |
| CCn1cc(C(=O)O)c(=O)c2ccc(C)nc21 [Compound I36] | significant bactericidal activity | 37.917 ppm | – | 15.743 ppm | 30.519 ppm | – | – |
| CCn1cc(C(=O)O)c(=O)c2cc(F)c(Cl)nc21 [Compound I38] | significant bactericidal activity | 12.643 ppm | – | 0.264 ppm | 12.724 ppm | more active against E. carotovora than the control drugs | – |
| O=C(O)c1cn(C2CC2)c2nc(Cl)c(F)cc2c1=O [Compound I40] | significant bactericidal activity | 0.064 ppm | more active against E. coli than the control drugs | 4.040 ppm | 0.002 ppm | more active against E. carotovora than the control drugs | significant bactericidal activity |
| O=C(O)c1cn(C2CC2)c2nc(N3CCNCC3)c(F)cc2c1=O [Compound I44] | significant bactericidal activity | 0.0000091 ppm | more active against E. coli than the control drugs | 0.00018 ppm | 0.284 ppm | more active against E. carotovora than the control drugs | significant bactericidal activity |
| [H]/N=C(/N)N[C@H]1[C@H](O)[C@@H](O)[C@H](O[C@@H]2O[C@@H](C)[C@](O)(C=O)[C@H]2O[C@@H]2O[C@@H](CO)[C@H](O)[C@@H](O)[C@@H]2NC)[C@@H](N/C(N)=N\[H])[C@@H]1O [Streptomycin, reference compound] | – | 1.918 ppm | – | 4.519 ppm | 0.169 ppm | – | – |
